The record followed here is ChEMBL document CHEMBL1150939, “Symplostatin 1: A dolastatin 10 analogue from the marine cyanobacterium Symploca hydnoides” (J Nat Prod, 1998).

≈ marks a conversion by molar mass, not a printed value.

The test system of experiment [1] is KB. Put plainly: Cytotoxicity against human KB cells. The format is functional, cell-based.
The test system of experiment [2] is A10. Put plainly: Induction of microtubule loss in rat A10 cells at 1 ng/mL. The format is functional.

One may read the IC50 as the concentration that gives 50% inhibition. A low value points to inhibition by little substance. On to `CC[C@H](C)[C@@H]([C@@H](CC(=O)N1CCC[C@H]1[C@H](OC)[C@@H](C)C(=O)N[C@@H](Cc1ccccc1)c1nccs1)OC)N(C)C(=O)[C@@H](NC(=O)[C@H](C(C)C)N(C)C)C(C)C` [DOLASTATIN-10], for which the IC50 in experiment [1] is below 0.1 ng/mL.
In the case of `CC[C@H](C)[C@@H]([C@@H](CC(=O)N1CCC[C@H]1[C@H](OC)[C@@H](C)C(=O)N[C@@H](Cc1ccccc1)c1nccs1)OC)N(C)C(=O)[C@@H](NC(=O)[C@H]([C@@H](C)CC)N(C)C)C(C)C` [SYMPLOSTATIN 1], in experiment [2], the Activity came out at 80%. The IC50 in experiment [1] came to 0.3 ng/mL (≈ 0.375 nM).
